Experimental findings from ChEMBL document CHEMBL5376000, “One-Pot Synthesis of Cereblon Proteolysis Targeting Chimeras via Photoinduced C(sp2)-C(sp3) Cross Coupling and Amide Formation for Proteolysis Targeting Chimera Library Synthesis” (J Med Chem, 2023) are described below.

Data set [1] is described as follows: Aqueous solubility of the compound at 125 ug/ml measured after 24 hrs at pH 4.5 by LC-UV analysis. The format is physicochemical. Particulars: for solubility at 24 h: aqueous medium, pH 4.5, dose 125 µg/ml; for solubility: buffer, pH 4.5, 24 h, dose 125 µg/ml.
Data set [2] can be described thus: Aqueous solubility of the compound at 125 ug/ml measured after 24 hrs at pH 6.8 by LC-UV analysis. The format is physicochemical. To be noted: for solubility at 24 h: aqueous medium, pH 6.8, dose 125 µg/ml; for solubility: buffer, pH 6.8, 24 h, dose 125 µg/ml.
Data set [3] can be described thus: Metabolic stability of the compound in human liver microsomes at 1 umol/L by HPLC-MS/MS analysis. The format is ADME, Microsome. To be noted: dose 1 µmol/L, read-out: Stability. For orientation: Liver microsomes are a subcellular fraction often used to study metabolism.
Data set [4] is described as follows: Metabolic stability of the compound in rat liver microsomes at 1 umol/L by HPLC-MS/MS analysis. The format is ADME, Microsome. Particulars: dose 1 µmol/L, read-out: Stability.
Data set [5] in a line: Metabolic stability of the compound in mouse liver microsomes at 1 umol/L by HPLC-MS/MS analysis. The format is ADME, Microsome. Particulars: dose 1 µmol/L, read-out: Stability.
Data set [6] can be described thus: Stability of the compound in 1:1 acetonitrile/water at 125 ug/ml measured after 24 hrs by LC-UV analysis. The format is physicochemical. To be noted: buffer, at 125 µg/mL.

In brackets after ≈: the same amount, converted by molar mass. Some results are limits rather than exact numbers.

Usually solubility stands for how much of the substance goes into solution per volume.

As to `Cc1sc2c(c1C)C(c1ccc(Cl)cc1)=N[C@@H](CC(=O)NCCCNc1ccc(Cc3ccc4c(c3)CN(C3CCC(=O)NC3=O)C4=O)cc1)c1nnc(C)n1-2` (stereo partly specified), the figures for the solubility at 24 h in data set [1] and in data set [2] were 14 µg/mL (≈ 17.7 µM) and 4 µg/mL (≈ 5.07 µM), respectively. Besides, the values for the remaining at 1 µM in data set [3], in data set [4] and in data set [5] were greater than 88%, 48% and 70%, respectively.
Consider `Cc1sc2c(c1C)C(c1ccc(Cl)cc1)=N[C@@H](CC(=O)NCCCCN1CCC(c3ccc4c(c3)CN(C3CCC(=O)NC3=O)C4=O)CC1)c1nnc(C)n1-2` (stereo partly specified), for which the solubility in data set [1] is greater than 189 µM; in data set [2] it was greater than 175 µM. In addition, the remaining at 1 µM in data set [3] is 66%; in data set [4], less than 23%; in data set [5], less than 24%.
Taken in the same sequence, the figures for `Cc1sc2c(c1C)C(c1ccc(Cl)cc1)=N[C@@H](CC(=O)NCCCCCN1CCC(c3ccc4c(c3)CN(C3CCC(=O)NC3=O)C4=O)CC1)c1nnc(C)n1-2` (stereo partly specified) were greater than 191 µM, greater than 178 µM, 54%, less than 23% and 27%.
For `Cc1sc2c(c1C)C(c1ccc(Cl)cc1)=N[C@@H](CC(=O)NCCN1CC3(CCC(c4ccc5c(c4)CN(C4CCC(=O)NC4=O)C5=O)CC3)C1)c1nnc(C)n1-2` (stereo partly specified), the solubility in data set [1] was greater than 190 µM. The same molecule showed a solubility at 24 h in data set [2] of 101 µg/mL (≈ 127 µM). In addition, the remaining at 1 µM in data set [3] is 60%; in data set [4] it was less than 23%; in data set [5], 33%.
Take `Cc1sc2c(c1C)C(c1ccc(Cl)cc1)=N[C@@H](CC(=O)Nc1ccc(Cc3ccc4c(c3)CN(C3CCC(=O)NC3=O)C4=O)cc1)c1nnc(C)n1-2` (stereo partly specified): the solubility in data set [1] and in data set [2] was less than 1 µM each time. Further, the remaining at 1 µM in data set [3] turned out to be 37%; in data set [4], 64%; in data set [5] it was 25%.
For `Cc1sc2c(c1C)C(c1ccc(Cl)cc1)=N[C@@H](CC(=O)NCCCCCNc1ccc(Cc3ccc4c(c3)CN(C3CCC(=O)NC3=O)C4=O)cc1)c1nnc(C)n1-2` (stereo partly specified), in data set [1], the solubility at 24 h came out at 6 µg/mL (≈ 7.34 µM). This molecule showed a solubility in data set [2] of less than 1 µM. The remaining at 1 µM is greater than 88% in data set [3], 58% in data set [4] and 76% in data set [5].
Regarding `Cc1sc2c(c1C)C(c1ccc(Cl)cc1)=N[C@@H](CC(=O)NCCN1CCC3(CCC(c4ccc5c(c4)CN(C4CCC(=O)NC4=O)C5=O)CC3)CC1)c1nnc(C)n1-2` (stereo partly specified), the solubility in data set [1] was greater than 190 µM. This molecule also had a solubility at 24 h in data set [2] of 161 µg/mL (≈ 196 µM). Besides, the values for the remaining at 1 µM in data set [3], in data set [4] and in data set [5] were 56%, 33% and 44%, respectively.
As for `Cc1sc2c(c1C)C(c1ccc(Cl)cc1)=N[C@@H](CC(=O)NCCCCCCNc1ccc(Cc3ccc4c(c3)CN(C3CCC(=O)NC3=O)C4=O)cc1)c1nnc(C)n1-2` (stereo partly specified), the concentration in solution in data set [1] (solubility at 24 h) was 3 µg/mL (≈ 3.61 µM). Also, the solubility in data set [2] is less than 1 µM. The remaining at 1 µM is greater than 88% in data set [3], 66% in data set [4] and 83% in data set [5].
As for `Cc1sc2c(c1C)C(c1ccc(Cl)cc1)=N[C@@H](CC(=O)NCCCCCCN1CCC(c3ccc4c(c3)CN(C3CCC(=O)NC3=O)C4=O)CC1)c1nnc(C)n1-2` (stereo partly specified), the solubility is greater than 197 µM in data set [1] and greater than 182 µM in data set [2]. Also, the remaining at 1 µM in data set [3] is 53%; in data set [4], less than 23%; in data set [5] it was less than 24%.
Consider `Cc1sc2c(c1C)C(c1ccc(Cl)cc1)=N[C@@H](CC(=O)NCCCCNc1ccc(Cc3ccc4c(c3)CN(C3CCC(=O)NC3=O)C4=O)cc1)c1nnc(C)n1-2` (stereo partly specified), for which the solubility at 24 h in data set [1] was determined as 4 µg/mL (≈ 4.98 µM). In addition, the solubility in data set [2] was less than 1 µM. For the same molecule, the remaining at 1 µM in data set [3] is greater than 88%; in data set [4] it was 62%; in data set [5], 77%.
For the molecule `Cc1sc2c(c1C)C(c1ccc(Cl)cc1)=N[C@@H](CC(=O)N1CCC(c3ccc4c(c3)CN(C3CCC(=O)NC3=O)C4=O)CC1)c1nnc(C)n1-2` (stereo partly specified), the solubility at 24 h in data set [1] stood at 36 µg/mL (≈ 50.7 µM); in data set [2], 26 µg/mL (≈ 36.6 µM). Besides, the values for the remaining at 1 µM in data set [3], in data set [4] and in data set [5] were 67%, 34% and 51%, respectively.
On to `Cc1sc2c(c1C)C(c1ccc(Cl)cc1)=N[C@@H](CC(=O)NCCN1CCC(c3ccc4c(c3)CN(C3CCC(=O)NC3=O)C4=O)CC1)c1nnc(C)n1-2` (stereo partly specified), for which the results for the solubility in data set [1] and in data set [2] were greater than 177 µM and greater than 162 µM, respectively. In addition, the remaining at 1 µM is 68% in data set [3], 40% in data set [4] and 25% in data set [5].
Taken in the same sequence, the figures for `Cc1sc2c(c1C)C(c1ccc(Cl)cc1)=N[C@@H](CC(=O)NCCCN1CCC(c3ccc4c(c3)CN(C3CCC(=O)NC3=O)C4=O)CC1)c1nnc(C)n1-2` (stereo partly specified) were greater than 185 µM, greater than 175 µM, 34%, less than 23% and 27%.
Regarding `Cc1sc2c(c1C)C(c1ccc(Cl)cc1)=N[C@@H](CC(=O)NCCNc1ccc(Cc3ccc4c(c3)CN(C3CCC(=O)NC3=O)C4=O)cc1)c1nnc(C)n1-2` (stereo partly specified), the values for the solubility at 24 h in data set [1] and in data set [2] were 3 µg/mL (≈ 3.87 µM) and 1 µg/mL (≈ 1.29 µM), respectively. Moreover, the values for the remaining at 1 µM in data set [3], in data set [4] and in data set [5] were 86%, 42% and 55%, respectively.
With `Cc1sc2c(c1C)C(c1ccc(Cl)cc1)=N[C@@H](CC(=O)NCCN1CC(N3CCC(c4ccc5c(c4)CN(C4CCC(=O)NC4=O)C5=O)CC3)C1)c1nnc(C)n1-2` (stereo partly specified), the values for the solubility in data set [1] and in data set [2] were greater than 188 µM and greater than 174 µM, respectively. Besides, the remaining at 1 µM was 41% in data set [3], less than 23% in data set [4] and 25% in data set [5]. The Stability result in data set [6] is reported as “Unstable”.
